Source: ChEMBL document CHEMBL1201862, “PubChem BioAssay data set” (2004)
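1) Cells in 96-well plates. 2) Compound, 48 h, 5 concentrations. 3) Linear interpolation between surrounding doses. 4) Unreached endpoint = highest concentration. At the GI50, growth is halved.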 Active and inactive are the calls of the source. Cut-off read from the data, not from the text of the source: active = GI50 up to about 1.1 µM and inactive = higher.

What was measured:
Assay in all cases: DTP human tumour cell line panel, 48 h
786-0 = test system: 786-0
HCT-116 = test system: HCT-116
HCT-15 = test system: HCT-15
HL-60 = test system: HL-60
HOP-92 = test system: HOP-92
K562 = test system: K562
M14 = test system: M14
NCI-H522 = test system: NCI-H522
OVCAR-8 = test system: OVCAR-8
RPMI-8226 = test system: RPMI-8226
SK-MEL-28 = test system: SK-MEL-28
SN12C = test system: SN12C
SNB-75 = test system: SNB-75
UACC-257 = test system: UACC-257
MCF7 = test system: MCF7
OVCAR-5 = test system: OVCAR-5
PC-3 = test system: PC-3
SF-268 = test system: SF-268
T47D = test system: T47D

| SMILES | GI50 (786-0) | GI50 (HCT-116) | GI50 (HCT-15) | GI50 (HL-60) | GI50 (HOP-92) | GI50 (K562) | GI50 (M14) | GI50 (NCI-H522) | GI50 (OVCAR-8) | GI50 (RPMI-8226) | GI50 (SK-MEL-28) | GI50 (SN12C) | GI50 (SNB-75) | GI50 (UACC-257) | GI50 (MCF7) | GI50 (OVCAR-5) | GI50 (PC-3) | GI50 (SF-268) | GI50 (T47D) |
| --- | --- | --- | --- | --- | --- | --- | --- | --- | --- | --- | --- | --- | --- | --- | --- | --- | --- | --- | --- |
| CN[C@@H](C)[C@H](NC)c1ccccc1 | > 100 µM (inactive) | > 100 µM (inactive) | 33.3 µM | > 100 µM (inactive) | > 100 µM (inactive) | > 100 µM (inactive) | > 100 µM (inactive) | > 100 µM (inactive) | > 100 µM (inactive) | > 100 µM (inactive) | > 100 µM (inactive) | > 100 µM (inactive) | > 100 µM (inactive) | > 100 µM (inactive) |  |  |  |  |  |
| CCCCCCCCCOC(=O)c1cnc(Cl)cn1 | 72.4 µM (inactive) | 17.7 µM (inactive) | 17.4 µM |  | 42.4 µM (inactive) | 36.8 µM (inactive) | 18.4 µM (inactive) | 19 µM (inactive) | 33.4 µM (inactive) | 21.9 µM (inactive) | 24 µM (inactive) | 18.3 µM (inactive) | 22.3 µM (inactive) | 23.6 µM (inactive) | 25 µM (inactive) | 29 µM (inactive) | 6.18 µM (inactive) | 21.2 µM (inactive) | 22.1 µM (inactive) |
| CC12CCC3(C1)[C@H](CC2=O)C[C@@H](OC(=O)c1ccccc1)C1C(C)(CO)CCC[C@@]13C (stereo not given in full) | 1.82 µM (inactive) | 2.22 µM (inactive) | 1.5 µM | 0.327 µM (active) | 3.65 µM (inactive) | 0.416 µM (active) | 3.61 µM (inactive) | 2.02 µM (inactive) | 3.13 µM (inactive) | 0.746 µM (active) | 13.3 µM (inactive) | 4.35 µM (inactive) | 9.14 µM (inactive) | 0.149 µM (active) |  | 2 µM (inactive) |  | 5.11 µM (inactive) |  |
| COC(=O)C(C(=O)C(=O)Nc1c(C)cccc1C)c1cnc2ccccc2n1 (stereo not given) | > 100 µM (inactive) | > 100 µM (inactive) | > 100 µM | > 100 µM (inactive) | > 100 µM (inactive) | > 100 µM (inactive) | > 100 µM (inactive) | > 100 µM (inactive) | > 100 µM (inactive) | > 100 µM (inactive) | > 100 µM (inactive) | > 100 µM (inactive) | > 100 µM (inactive) | > 100 µM (inactive) |  | > 100 µM (inactive) |  | > 100 µM (inactive) |  |
| CCN(CC)CCSc1c2ccccc2nc2cc(NCC(=O)Nc3ccccc3-c3ccccc3NC(=O)CNc3ccc4c(SCCN(CC)CC)c5ccccc5nc4c3)ccc12 | > 92.9 µM (inactive) | > 78.3 µM (inactive) | > 100 µM | 20.3 µM (inactive) | > 100 µM (inactive) | 24 µM (inactive) | > 100 µM (inactive) | 74.6 µM (inactive) | > 100 µM (inactive) | 53.7 µM (inactive) | > 100 µM (inactive) | > 100 µM (inactive) | > 77.4 µM (inactive) | > 100 µM (inactive) |  | > 100 µM (inactive) |  | > 100 µM (inactive) |  |
| C1=C2/CC[C@H](Sc3ccccc3)C2C2(CCCCC/1)OCCO2 (stereo not given in full) | 42.4 µM (inactive) | 16.5 µM (inactive) |  | 8.41 µM (inactive) | 3.72 µM (inactive) | 24.7 µM (inactive) |  |  | 39.3 µM (inactive) | 17.6 µM (inactive) | 30.2 µM (inactive) | 32.3 µM (inactive) | 23.9 µM (inactive) | 15.9 µM (inactive) |  |  |  | 39.2 µM (inactive) |  |
| CN(C)c1ccc(/C=C2\Oc3cc(O)ccc3C2=O)cc1 | > 100 µM (inactive) | > 100 µM (inactive) | 44.9 µM | 40.5 µM (inactive) |  | 37.8 µM (inactive) | 75.7 µM (inactive) | 28.1 µM (inactive) | > 100 µM (inactive) | 74.1 µM (inactive) | > 100 µM (inactive) | 62.4 µM (inactive) | 79.6 µM (inactive) | > 100 µM (inactive) | 80.9 µM (inactive) |  | > 100 µM (inactive) | > 100 µM (inactive) | > 100 µM (inactive) |
| COC(=O)/C(=N\NC(=O)C[N+](C)(C)C)C(C(=O)OC)C(=O)C(=O)Nc1ccccc1C(N)=O (stereo not given) | > 100 µM (inactive) | > 100 µM (inactive) | > 100 µM | > 100 µM (inactive) |  | > 100 µM (inactive) | > 100 µM (inactive) | > 100 µM (inactive) |  | > 100 µM (inactive) | > 100 µM (inactive) | > 100 µM (inactive) | > 100 µM (inactive) | > 100 µM (inactive) |  | > 100 µM (inactive) |  | > 100 µM (inactive) |  |
| Cc1cccc(C(C)(C)C)c1NC(=O)C(=O)C(C(=O)/C=C\c1ccccc1)C1OC(=O)c2ccccc21 (stereo not given) | > 100 µM (inactive) | > 100 µM (inactive) | > 100 µM | > 100 µM (inactive) | > 100 µM (inactive) | > 100 µM (inactive) | > 100 µM (inactive) | > 100 µM (inactive) | > 100 µM (inactive) | > 100 µM (inactive) | > 100 µM (inactive) | > 100 µM (inactive) | > 100 µM (inactive) | > 100 µM (inactive) |  | > 100 µM (inactive) |  | > 100 µM (inactive) |  |
| O=c1[nH]c(=O)n(C2CC(O)C(O)C(CO)O2)cc1F (stereo not given) | > 100 µM (inactive) | > 100 µM (inactive) | > 100 µM | > 100 µM (inactive) | > 100 µM (inactive) | > 100 µM (inactive) | > 100 µM (inactive) | > 100 µM (inactive) | > 100 µM (inactive) | > 100 µM (inactive) | > 100 µM (inactive) | > 100 µM (inactive) | > 100 µM (inactive) | > 100 µM (inactive) |  | > 100 µM (inactive) |  | > 100 µM (inactive) |  |
| COC(=O)n1c(=O)n(-c2ccccc2)c(=O)n1C(=O)Nc1ccccc1 | > 100 µM (inactive) | > 100 µM (inactive) | > 100 µM | > 100 µM (inactive) | > 100 µM (inactive) | 51.3 µM (inactive) | > 100 µM (inactive) | > 100 µM (inactive) | > 100 µM (inactive) | 96.4 µM (inactive) | > 100 µM (inactive) |  | > 100 µM (inactive) | > 100 µM (inactive) |  | > 100 µM (inactive) | > 100 µM (inactive) | > 100 µM (inactive) | > 100 µM (inactive) |
| C=C1N(C=O)C(C)(C)N(O)C1(C)C | > 100 µM (inactive) | > 100 µM (inactive) | > 100 µM |  | > 100 µM (inactive) |  | > 100 µM (inactive) |  | > 100 µM (inactive) | > 100 µM (inactive) | > 100 µM (inactive) | > 100 µM (inactive) | > 100 µM (inactive) | > 100 µM (inactive) | > 100 µM (inactive) | > 100 µM (inactive) | > 100 µM (inactive) | > 100 µM (inactive) | > 100 µM (inactive) |
| CCCCCCCCCCCC(=O)OCC1OC(n2cc(F)c(=O)[nH]c2=O)C(NC(=O)OCc2ccccc2)C(OC(=O)CCCCCCCCCCC)C1O (stereo not given) | > 100 µM (inactive) | > 100 µM (inactive) | > 100 µM |  | > 100 µM (inactive) | > 100 µM (inactive) | > 100 µM (inactive) | > 100 µM (inactive) | > 100 µM (inactive) | > 100 µM (inactive) | > 100 µM (inactive) | > 100 µM (inactive) | > 100 µM (inactive) | > 100 µM (inactive) |  | > 100 µM (inactive) |  | > 100 µM (inactive) |  |
| O=C(O)c1ccccc1NC(=O)C1CCCCC1 | > 100 µM (inactive) | > 100 µM (inactive) | > 100 µM | > 100 µM (inactive) | 6.08 µM (inactive) | > 100 µM (inactive) | > 100 µM (inactive) |  | > 100 µM (inactive) | > 100 µM (inactive) | > 100 µM (inactive) | > 100 µM (inactive) | > 100 µM (inactive) | > 100 µM (inactive) |  | > 100 µM (inactive) |  | > 100 µM (inactive) |  |
| COc1ccc2cc(C(=O)c3ccccc3C(=O)O)ccc2c1 | > 100 µM (inactive) | > 100 µM (inactive) | > 100 µM | > 100 µM (inactive) |  | > 100 µM (inactive) | > 100 µM (inactive) | > 100 µM (inactive) | > 100 µM (inactive) |  | > 100 µM (inactive) | > 100 µM (inactive) | > 100 µM (inactive) | > 100 µM (inactive) |  | > 100 µM (inactive) |  | > 100 µM (inactive) |  |
| CC1(C)OCC(COC(=O)NCn2cc(-c3ccccc3)nn2)O1 (stereo not given) | > 100 µM (inactive) | > 100 µM (inactive) | > 100 µM | > 100 µM (inactive) | > 100 µM (inactive) | > 100 µM (inactive) | > 100 µM (inactive) | > 100 µM (inactive) | > 100 µM (inactive) | > 100 µM (inactive) | > 100 µM (inactive) | > 100 µM (inactive) | > 100 µM (inactive) | > 100 µM (inactive) | > 100 µM (inactive) | > 100 µM (inactive) | > 100 µM (inactive) | > 100 µM (inactive) |  |
| CC(=O)NC1C(=O)CC(c2ccccc2)N(C)C1c1ccccc1 (stereo not given) | > 100 µM (inactive) | > 100 µM (inactive) | > 100 µM | > 100 µM (inactive) | 82.6 µM (inactive) | > 100 µM (inactive) | 61 µM (inactive) | > 100 µM (inactive) | > 100 µM (inactive) |  | > 100 µM (inactive) | > 100 µM (inactive) | > 100 µM (inactive) | > 100 µM (inactive) |  | > 100 µM (inactive) |  | > 100 µM (inactive) |  |
| CCc1cccc(C)c1NC(=O)CC(=O)NNC(N)=S | > 100 µM (inactive) |  | > 100 µM | > 100 µM (inactive) | > 100 µM (inactive) | > 100 µM (inactive) | > 100 µM (inactive) | > 100 µM (inactive) | > 100 µM (inactive) | > 100 µM (inactive) | > 100 µM (inactive) | > 100 µM (inactive) | > 100 µM (inactive) | > 100 µM (inactive) |  | > 100 µM (inactive) |  | > 100 µM (inactive) |  |
